The source of these data is patent US10729674B2, “Nanoparticle isoflavone compositions and methods of making and using the same” (Humanetics Corporation, priority 2010, dated 2020).

SMILES strings stand for the structures. ≈ marks a conversion by molar mass, not a printed value. Like-named read-outs stand apart in the source and are kept apart here.

The nature of data set [1]: Solubility of genistein in vehicles at 25° C. Type of data set: physicochemical. On the procedure: Calculated pka's for genistein range from 7-9, with the predicted solubility increasing above pH 7 in accordance with the lowest pKa. The calculated properties were used to design the appropriate pH range for the pH-solubility profile of genistein in several acceptable cosolvents, which was established to be pH 6-9.
The solubility of genistein in water is not detectable at pH 6-7, which implies the solubility is less than 0.02 mg/mL or ˜0.00002 g/g H2O (lowest concentration), Based on the pH-solubility and solubility in cosolvents, it was determined that PEG400 would be the cosolvent to achieve highest solubility. Since parenteral formulations preferably have a maximum of 50% organic component, the addition of Ethanol (EtOH), Nmethylpyrrolidone (NMP) and a surfactant were considered, since these would be expected to enhance absorption from the injection site. Ethanol has the added benefit of reducing viscosity. […] Solubility was further evaluated in two aqueous/organic mixtures with concentrations acceptable for a parenteral dosage form. Additionally, cyclodextrin formulations were evaluated.

The conditions of data set [2]: 25° C.; cited from earlier work.

`O=c1c(-c2ccc(O)cc2)coc2cc(O)cc(O)c12` [Genistein, 5,7-dihydroxy-3-(4-hydroxyphenyl)-chromen-4-one]: the solubility in data set [1] (25 °C, aqueous with cosolvent or surfactant or cyclodextrin, thermodynamic from solid, 30% Hydroxypropyl-β-cyclodextrin, read-out: Solubility of GENISTEIN at 25° C.) is 6 mg/mL (≈ 22.2 mM); in data set [1] (25 °C, aqueous with cosolvent or surfactant or cyclodextrin, thermodynamic from solid, 30% Sulfobutylether-β-cyclodextrin, read-out: Solubility of GENISTEIN at 25° C.), 8 mg/mL (≈ 29.6 mM); in data set [1] (25 °C, organic solvent or mixture, thermodynamic from solid, Dimethyl acetamide (DMA), read-out: Solubility at 25° C.), 141 mg/mL (≈ 523 mM); in data set [1] (25 °C, organic solvent or mixture, thermodynamic from solid, Ethanol, read-out: Solubility at 25° C.) it was 25 mg/mL (≈ 92.5 mM); in data set [1] (25 °C, organic solvent or mixture, thermodynamic from solid, N-methyl pyrrolidone (NMP), read-out: Solubility at 25° C.), 238 mg/mL (≈ 881 mM); in data set [1] (25 °C, organic solvent or mixture, thermodynamic from solid, Polyethylene Glycol 300 (PEG300), read-out: Solubility at 25° C.), 110 mg/mL (≈ 409 mM). Moreover, the solubility is 115 mg/mL (≈ 426 mM) in data set [1] (25 °C, organic solvent or mixture, thermodynamic from solid, Polyethylene Glycol 400 (PEG400), read-out: Solubility at 25° C.); 6.2 mg/mL (≈ 22.9 mM) in data set [1] (25 °C, organic solvent or mixture, thermodynamic from solid, Propylene Glycol, read-out: Solubility at 25° C.); less than 0.02 mg/mL in data set [1] (25 °C, pH 6, aqueous buffer, thermodynamic from solid, pH 6-7, not detectable, lowest concentration, read-out: solubility in water); 12 mg/mL (≈ 44.4 mM) in data set [1] (25 °C, pH 7, aqueous with cosolvent or surfactant or cyclodextrin, thermodynamic from solid, 10% Polysorbate 80/10% EtOH/40% PEG400/40% 25 mM Phosphate Buffered Saline (pH 7), read-out: Solubility of GENISTEIN at 25° C.); 19 mg/mL (≈ 70.3 mM) in data set [1] (25 °C, pH 7, aqueous with cosolvent or surfactant or cyclodextrin, thermodynamic from solid, 10% Polysorbate 80/10% NMP/40% PEG400/40% 25 mM Phosphate Buffered Saline (pH 7), read-out: Solubility of GENISTEIN at 25° C.); 11 mg/mL (≈ 40.7 mM) in data set [1] (25 °C, pH 7, aqueous with cosolvent or surfactant or cyclodextrin, thermodynamic from solid, 10% Polysorbate 80/40% PEG400/50% 25 mM Phosphate Buffered Saline (pH 7), read-out: Solubility of GENISTEIN at 25° C.). Moreover, the concentration in solution in data set [1] (25 °C, pH 9, aqueous buffer, thermodynamic from solid, Borate buffer pH 9, 7 days) (solubility at 7 days) came to 0.043 mg/mL (≈ 0.159 mM). For the same compound, the concentration in solution in data set [1] (25 °C, pH 9, aqueous buffer, thermodynamic from solid, Borate buffer pH 9, 14 days) (solubility at 14 days) came to 0.005 mg/mL (≈ 0.0185 mM). Further, the “Solubility at 25° C.” value is listed as “Not detected” in data set [1] (Borate buffer pH 9, 3 days); “Not detected” in data set [1] (Citrate buffer pH 6); “Not detected” in data set [1] (Phosphate buffer pH 7); “Not detected” in data set [1] (TRIS buffer pH 8). This compound also registered a solubility in water in data set [1] (pH 6-7, not detectable, lowest concentration) of less than 0.00002 g/g H2O. Besides, in data set [1] (pH 9), the “stability in pH-solubility profile” value is reported as “degradation was observed”. For the same compound, the “parts water required to dissolve one part genistein” value in data set [2] is “greater than 50,000 parts water”.
